# Measured values as given in patent US20110009351A1, “SCREENING ASSAY TO IDENTIFY CORRECTORS OF PROTEIN TRAFFICKING DEFECTS” (Traffick Therepeutics Inc., priority 2007, published 2011).
# Structures can show the parent of a compound that is named as a salt.
# Legend:
# ΔF508-CFTR [1] = molecular target: T1, ΔF508-CFTR (Homo sapiens, UniProt P13569, DEL508-508); test: iodide efflux assay in CFBE41o− airway epithelial cells; type: cell-based; parameters: expressed in transfected cells; host or cells: CFBE41o- (ΔF508/ΔF508) transduced with ΔF508-CFTR, TranzVector lentivirus, provided by J. P. Clancy; conditions: compared with BHK
# T1 sequence (P13569 with tags, fused parts or gaps DEL508-508): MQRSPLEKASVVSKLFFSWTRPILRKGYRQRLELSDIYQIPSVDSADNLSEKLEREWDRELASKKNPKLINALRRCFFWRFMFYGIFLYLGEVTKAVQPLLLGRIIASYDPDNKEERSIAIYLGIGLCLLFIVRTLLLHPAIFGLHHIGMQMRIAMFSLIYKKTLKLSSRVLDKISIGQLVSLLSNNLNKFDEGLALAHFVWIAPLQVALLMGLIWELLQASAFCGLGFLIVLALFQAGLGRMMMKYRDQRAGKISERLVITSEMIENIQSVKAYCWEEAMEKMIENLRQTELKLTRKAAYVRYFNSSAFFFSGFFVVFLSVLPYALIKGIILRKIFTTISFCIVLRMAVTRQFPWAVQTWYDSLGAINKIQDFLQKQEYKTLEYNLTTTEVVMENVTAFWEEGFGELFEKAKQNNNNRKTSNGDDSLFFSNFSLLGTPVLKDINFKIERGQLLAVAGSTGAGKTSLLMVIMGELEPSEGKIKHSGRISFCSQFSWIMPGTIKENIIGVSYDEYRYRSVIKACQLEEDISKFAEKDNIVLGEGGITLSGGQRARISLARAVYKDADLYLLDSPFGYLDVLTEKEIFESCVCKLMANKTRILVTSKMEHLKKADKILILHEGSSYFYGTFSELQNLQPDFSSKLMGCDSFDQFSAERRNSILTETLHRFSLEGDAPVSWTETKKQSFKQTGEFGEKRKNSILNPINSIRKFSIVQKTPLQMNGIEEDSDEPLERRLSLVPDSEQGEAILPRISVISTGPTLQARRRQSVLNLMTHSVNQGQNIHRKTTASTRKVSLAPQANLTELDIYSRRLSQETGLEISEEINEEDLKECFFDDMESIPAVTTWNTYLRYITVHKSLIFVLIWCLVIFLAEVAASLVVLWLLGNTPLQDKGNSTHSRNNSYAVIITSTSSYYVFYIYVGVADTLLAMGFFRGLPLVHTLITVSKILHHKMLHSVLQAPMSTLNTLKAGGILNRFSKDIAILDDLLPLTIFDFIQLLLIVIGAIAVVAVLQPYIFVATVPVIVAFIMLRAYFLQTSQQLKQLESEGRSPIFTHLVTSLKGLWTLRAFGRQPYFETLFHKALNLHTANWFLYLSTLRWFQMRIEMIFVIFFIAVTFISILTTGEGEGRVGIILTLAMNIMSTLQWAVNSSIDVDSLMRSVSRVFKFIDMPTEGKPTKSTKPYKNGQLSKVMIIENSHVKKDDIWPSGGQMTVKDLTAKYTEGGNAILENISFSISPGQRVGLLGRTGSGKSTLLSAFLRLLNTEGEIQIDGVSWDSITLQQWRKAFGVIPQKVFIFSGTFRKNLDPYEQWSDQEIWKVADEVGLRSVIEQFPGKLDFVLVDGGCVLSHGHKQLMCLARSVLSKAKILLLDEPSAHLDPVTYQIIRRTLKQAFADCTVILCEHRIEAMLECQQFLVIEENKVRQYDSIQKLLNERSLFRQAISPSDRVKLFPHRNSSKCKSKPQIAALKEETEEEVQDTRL
# Procedure: Experiments were performed by hand or with a robotic liquid handling system (BioRobot 8000, Qiagen, USA) using Qiagen 4.1 software. Cells were cultured in 24-well plates until they reached confluence in order to perform parallel experiments and comparison analysis. After treatment (or not) with a test compound, medium in each well was replaced with 1 ml of iodide loading buffer (in mM: 136 NaI, 3 KNO3, 2 Ca(NO3)2, 11 glucose and 20 Hepes pH 7.4) for 1 hour at 37° C. to permit the I′ to reach equilibrium. […] The loss of intracellular I^− was determined by removing the medium and replacing it with fresh efflux buffer every 1 min for up to 11 min. […] The iodide concentration of each aliquot was determined using an iodide-sensitive electrode (Orion Research Inc., Boston, Mass., USA or Ecomet) and converted to iodide content (i.e. the amount of iodide released during the 1 min interval). […]
# Iodide effluxes were performed using a robotic liquid handling system (BioRobot 8000, Qiagen, Valencia, Calif.) and Qiagen 4.1 software. […] Efflux was measured by replacing the medium with 300 μl fresh efflux buffer at 1 min intervals for up to 11 min. […] Iodide concentration was measured in each aliquot (300 μl) using an iodide-sensitive electrode (Orion Research Inc., Boston, Mass.). […]
# ΔF508-CFTR [2] = molecular target: T2, ΔF508-CFTR (Mus musculus, UniProt P26361, DEL508-508); test: ex vivo treatment of ileum from ΔF508-CFTR mice, Isc response to forskolin+genistein; conditions: 20 μM, 5-6 h ex vivo
# T2 construct: from tissue; host or cells: ileal mucosa of homozygous ΔF508 mice (A11 ex vivo, A12 after gavage); salivary secretion in the living mouse (A13)
# T2 sequence (P26361 with tags, fused parts or gaps DEL508-508): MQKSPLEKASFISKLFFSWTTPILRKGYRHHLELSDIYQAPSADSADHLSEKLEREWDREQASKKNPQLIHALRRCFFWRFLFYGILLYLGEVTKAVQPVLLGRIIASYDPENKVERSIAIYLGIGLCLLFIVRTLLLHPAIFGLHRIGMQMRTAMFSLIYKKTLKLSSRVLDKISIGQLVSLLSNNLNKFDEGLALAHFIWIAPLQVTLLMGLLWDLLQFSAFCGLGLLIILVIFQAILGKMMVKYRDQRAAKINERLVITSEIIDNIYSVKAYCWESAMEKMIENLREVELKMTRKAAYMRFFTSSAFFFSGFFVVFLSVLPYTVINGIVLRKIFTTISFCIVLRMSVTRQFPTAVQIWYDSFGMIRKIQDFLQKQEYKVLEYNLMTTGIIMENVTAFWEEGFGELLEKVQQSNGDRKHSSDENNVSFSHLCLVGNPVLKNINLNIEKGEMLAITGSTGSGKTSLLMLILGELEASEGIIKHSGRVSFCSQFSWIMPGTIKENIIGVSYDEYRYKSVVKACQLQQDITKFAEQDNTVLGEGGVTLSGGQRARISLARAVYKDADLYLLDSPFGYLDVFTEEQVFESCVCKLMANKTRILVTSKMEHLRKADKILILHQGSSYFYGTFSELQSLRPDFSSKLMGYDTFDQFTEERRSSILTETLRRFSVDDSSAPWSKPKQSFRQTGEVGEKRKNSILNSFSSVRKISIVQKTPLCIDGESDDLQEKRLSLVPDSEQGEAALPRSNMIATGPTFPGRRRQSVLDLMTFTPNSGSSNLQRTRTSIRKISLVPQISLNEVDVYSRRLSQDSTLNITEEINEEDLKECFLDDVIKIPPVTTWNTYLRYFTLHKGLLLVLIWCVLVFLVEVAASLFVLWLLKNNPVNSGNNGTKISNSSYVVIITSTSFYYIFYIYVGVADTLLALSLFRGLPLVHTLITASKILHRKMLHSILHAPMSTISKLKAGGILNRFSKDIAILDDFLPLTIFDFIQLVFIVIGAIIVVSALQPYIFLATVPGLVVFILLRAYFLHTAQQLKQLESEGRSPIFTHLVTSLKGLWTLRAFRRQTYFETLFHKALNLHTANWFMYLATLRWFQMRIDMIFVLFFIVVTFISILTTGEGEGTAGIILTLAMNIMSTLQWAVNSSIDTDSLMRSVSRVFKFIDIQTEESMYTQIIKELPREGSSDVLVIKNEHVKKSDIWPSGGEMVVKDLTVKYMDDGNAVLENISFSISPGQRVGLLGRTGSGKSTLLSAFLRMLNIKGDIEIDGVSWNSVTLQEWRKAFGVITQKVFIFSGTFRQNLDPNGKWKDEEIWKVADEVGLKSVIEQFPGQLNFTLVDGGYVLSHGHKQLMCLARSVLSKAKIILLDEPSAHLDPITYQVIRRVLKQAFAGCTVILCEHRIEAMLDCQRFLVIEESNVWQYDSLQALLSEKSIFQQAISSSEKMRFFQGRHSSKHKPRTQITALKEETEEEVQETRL
# Procedure: Glafenine was tested ex vivo and in vivo using ileum from homozygous Δ508-CFTR mice (CFTR^tm1 Eur; van Doorninck et al., 1995) and wild-type littermates controls. Mice were 14-17 weeks old, weighed 24-30 g, and were genotyped by standard PCR methods using tail DNA. The mice were kept in a pathogen-free environment in the animal facility at McGill University and fed a high protein diet (SRM-A, Hope Farms, Woerden, NL) modified to contain pork instead of beef. All procedures followed Canadian Institutes of Health Research (CIHR) guidlines and were approved by the faculty Animal Care Committee. For ex vivo experiments, ileal mucosa was stripped of muscle and incubated in William's E-Glutamax medium supplemented with insulin (10 μg/ml), 100 U/ml penicillin, and 100 μg/ml streptomycin and dexamethasone (1.6 ng/ml) containing 0.1% DMSO (control) or DMSO containing glafenine for 5 h. The tissue was then rinsed repeatedly and mounted in Ussing chambers to measure […]. For in vivo experiments, mice were feed once per day by gavage with saline containing glafenine (50 mg/kg) or vehicle alone (0.1% DMSO). After 2 days of glafenine treatment the mice were euthanized under CO2, the intestine was dissected and the short circuit current was measured as described above.
# ΔF508-CFTR [3] = molecular target: T1, ΔF508-CFTR; test: immunoblot and densitometry of mature band C, BHK cells expressing ΔF508-CFTR; type: cell-based; parameters: which was then ligated into full length pNUT-CFTR linearized using Hpa1 and Pml1; expressed in transfected cells; conditions: 10 μM, 24 h
# Procedure: Cell lysates were quantitated by Bradford assay (BioRad) and separated by SDS-PAGE (6% polyacrylamide gels) and analyzed by Western blotting. Western blots were blocked using 5% skimmed milk in PBS, then probed overnight at 4° C. with a primary anti-CFTR antibody at a dilution of 1:1000 monoclonal mouse antibody (clone M3A7, Chemicon). The blots were washed four times in PBS before the addition of the secondary HRP-conjugated anti-mouse antibody, at a dilution of 1:5000 (Amersham) for one hour at room temperature. The blots were washed five times in PBS and probed for chemiluminescence (Pierce). All samples were run with equal protein loading as determined using the Bradford assay (Biorad). Densitometry of the immunoblots was performed using the ImageJ program (National Institutes of Health).
# Total protein was quantified in cell lysates using the Bradford assay (BioRad, Hercules, Calif.), separated using SDS-PAGE (6% polyacrylamide gels), and analyzed by Western blotting as described previously (Robert et al., 2007). Western blots were blocked with 5% skimmed milk in PBS and probed overnight at 4° C. with a monoclonal primary anti-CFTR antibody (clone M3A7, Chemicon, Temecula, Calif.) diluted 1:1000. The blots were washed four times in PBS before adding the secondary HRP-conjugated anti-mouse antibody at a dilution of 1:5000 (Amersham, Piscataway, N.J.) for one hour at room temperature, then washed again five times in PBS and visualized using chemiluminescence (Pierce, Rockford, Ill.). The relative intensity of each CFTR glycoform (band B or band C) was estimated by densitometry using the ImageJ software and reported as a percentage of the total CFTR in the same lane (i.e. B+C).
structure (smiles),measurement,setting,value
"O=C(OCC(O)CO)c1ccccc1Nc1ccnc2cc(Cl)ccc12 (centres unmarked) [Glafenine hydrochloride, 2-[(7-chloro-4-quinolinyl)amino]benzoic acid 2,3-dihydroxypropyl ester]",rescue of iodide efflux,ΔF508-CFTR [1],more striking
same,forskolin+genistein-stimulated current versus vehicle alone,ΔF508-CFTR [2],~12 fold
same,restoration of the secretory response observed in wild-type mice,ΔF508-CFTR [2],~46% and ≈ 46%
same,band C glycoform as share of the CFTR signal (band B+band C),ΔF508-CFTR [3],approximately 38%
same,increase of band C glycoform compared to untreated control,ΔF508-CFTR [3],28.4%
